Results from patent US8481595B2, “Compounds for the treatment of metabolic disorders” (Wellstat Therapeutics Corporation, priority 2008, dated 2013).

System: db/db mice
Experiment: Antidiabetic effects in db/db mice (serum chemistry after 2 weeks of daily oral dosing)
Format: in vivo
Excerpt: Db/db mice have a defect in leptin signaling, leading to hyperphagia, obesity and diabetes. Moreover, unlike ob/ob mice on a C57BL/6J background, db/db mice on a C57BLKS background undergo failure of their insulin-producing pancreatic islet cells, resulting in progression from hyperinsulinemia (associated with peripheral insulin resistance) to hypoinsulinemic diabetes.
Male obese (db/db homozygote) C57BL/Ksola mice approximately 8 weeks of age, were obtained from Jackson Labs (Bar Harbor, Me.) and randomly assigned into groups of 5-7 animals such that the body weights (40-45 g) and serum glucose levels (≧300 mg/dl in fed state) were similar between groups; male lean (db/+heterozygote) mice served as cohort controls. A minimum of 7 days was allowed for adaptation after arrival. All animals were maintained under controlled temperature (23° C.), relative humidity (50±5%) and light (7:0-19:00), and allowed free access to standard chow (Formulab Diet 5008, Quality Lab Products, Elkridge, Md.) and water.
Mice received daily oral doses of vehicle or Compound DP (100 mg/kg/day) for 2 weeks. At the end of the treatment period 100 μl of venous blood was withdrawn in a heparinized capillary tube from the retro-orbital sinus for serum chemistry analysis.

[1] = db/db mice, after 2 weeks of daily oral dosing, 100 mg/kg/day

## Cc1cccc(C)c1C(=O)Oc1cccc(C(=O)CCC(=O)O)c1 [Compound DP, 4-(3-(2,6-Dimethylbenzoyloxy)phenyl)-4-oxobutanoic acid]
[1]
  reduction in serum glucose (in words): significant reduction
  reduction in serum triglycerides (in words): significant reduction
Male db/db C57BL/Ksola mice, 100 mg/kg/day oral, 2 weeks, vehicle 388.0 ± 50.7, lean 96.4 ± 6.4, *p < 0.05 vs vehicle-control
  Triglycerides (serum): 140.8 ± 20.6* mg/dL
Male db/db C57BL/Ksola mice, 100 mg/kg/day oral, 2 weeks, vehicle 752.9 ± 46.0, lean 212.6 ± 15.3, *p < 0.05 vs vehicle-control
  Glucose (serum): 264.3 ± 96.8* mg/dL
